Assay results: PMC3210601, “New Tetromycin Derivatives with Anti-Trypanosomal and Protease Inhibitory Activities” (Marine Drugs, 2011)
Where “and” joins values, the source holds several entries; their conditions need not be identical. Equal entries are not always repeated. Where two headings read alike, the source gives them in different places.

Key:
[1] = Cytotoxicity Alamar Blue assay, 293T kidney epithelial cells; settings: human
[2] = test system: Leishmania major promastigotes; assay: Anti-Leishmania Alamar Blue assay (promastigotes); settings: read-out: IC50 L. major
[3] = test system: Trypanosoma brucei subsp. brucei; assay: Anti-Trypanosoma Alamar Blue assay (trypomastigotes, strain TC 221)
[4] = mouse
[5] = biological target: falcipain-2 (Plasmodium falciparum, UniProt Q8I6U4); assay: Fluorometric protease inhibition assay, falcipain-2; format: biochemical, P. falciparum; settings: for Ki: read-out: FP Ki; for FP k2nd: time-dependent inhibition, k2nd = ki/Ki
Sequence of falcipain-2 (Q8I6U4 244-484): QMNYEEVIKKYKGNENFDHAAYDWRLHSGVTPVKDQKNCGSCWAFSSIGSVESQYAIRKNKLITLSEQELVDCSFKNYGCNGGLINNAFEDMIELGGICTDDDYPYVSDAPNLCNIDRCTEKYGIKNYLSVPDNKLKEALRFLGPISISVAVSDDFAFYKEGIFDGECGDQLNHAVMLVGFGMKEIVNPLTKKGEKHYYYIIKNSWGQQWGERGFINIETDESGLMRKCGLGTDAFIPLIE

[6] = biological target: SARS-CoV PL^pro (Severe acute respiratory syndrome coronavirus, UniProt P0C6X7); assay: biochemical
[7] = biological target: rhodesain (Trypanosoma brucei rhodesiense, UniProt Q95PM0); assay: Fluorometric protease inhibition assay, rhodesain; format: biochemical, T. brucei rhodesiense; settings: for Ki: read-out: RD Ki; for RD k2nd: time-dependent inhibition, k2nd = ki/Ki
Sequence of rhodesain (Q95PM0 entry or part of it): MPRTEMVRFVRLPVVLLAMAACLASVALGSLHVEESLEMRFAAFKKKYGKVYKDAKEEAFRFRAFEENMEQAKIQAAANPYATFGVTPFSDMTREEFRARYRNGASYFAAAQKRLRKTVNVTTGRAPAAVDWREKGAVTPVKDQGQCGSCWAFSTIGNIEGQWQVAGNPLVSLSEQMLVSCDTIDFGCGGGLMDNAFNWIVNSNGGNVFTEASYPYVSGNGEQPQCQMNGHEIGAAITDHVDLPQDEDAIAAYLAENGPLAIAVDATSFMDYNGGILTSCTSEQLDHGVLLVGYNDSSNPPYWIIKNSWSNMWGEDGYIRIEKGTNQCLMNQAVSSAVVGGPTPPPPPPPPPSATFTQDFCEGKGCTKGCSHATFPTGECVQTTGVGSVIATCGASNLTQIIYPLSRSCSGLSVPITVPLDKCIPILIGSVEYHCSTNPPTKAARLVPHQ

[8] = biological target: cathepsin L (Homo sapiens, UniProt P07711); assay: Fluorometric protease inhibition assay, cathepsin L; format: biochemical, mammalian; settings: for Ki: read-out: CL Ki; for CL k2nd: time-dependent inhibition, k2nd = ki/Ki
Sequence of cathepsin L (P07711 114-333, species assumed): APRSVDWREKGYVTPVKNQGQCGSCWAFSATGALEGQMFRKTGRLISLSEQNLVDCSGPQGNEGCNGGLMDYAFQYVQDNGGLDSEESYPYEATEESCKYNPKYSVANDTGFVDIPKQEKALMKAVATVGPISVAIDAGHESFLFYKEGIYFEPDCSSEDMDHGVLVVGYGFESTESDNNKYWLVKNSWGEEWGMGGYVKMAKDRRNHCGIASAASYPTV

[9] = biological target: cathepsin B (Homo sapiens, UniProt P07858); assay: Fluorometric protease inhibition assay, cathepsin B; format: biochemical, mammalian; settings: for Ki: non-time dependent, Dixon equation, corrected to zero substrate, substrate 100 μM, pH 6.2, 25 °C, read-out: CB Ki
[10] = 48 h, read-out: IC50 T. brucei brucei (48 h)
[11] = 72 h, read-out: IC50 T. brucei brucei (72 h)
[12] = progress curves, inhibitor 0-16.7 μM (Figure 6)

SMILES	IC50 at 24 h ([1]; 293T kidney epithelial cells) [µM]	IC50 [2] [µM]	IC50 [3, 10] [µM]	IC50 [3, 11] [µM]	IC50 at 24 h [4] [µM]	Ki [5] [µM]	FP k2nd [5]	IC50 at 24 h [1] [µM]	Ki [6] [µM]	mode of inhibition with respect to the substrate, rhodesain ([7]; Ki determined at three different substrate concentrations)	time dependence of inhibition, rhodesain [7, 12]	Ki [7] [µM]	RD k2nd [7]	Ki [8] [µM]	CL k2nd [8]	Ki [9]	time dependence of inhibition, cathepsin B [9, 12]	ki (rate constant of inhibition) rhodesain ([7]; Figure 8, data from two independent assays) [min⁻¹]
COc1cc(C)c(C(=O)OC2C(C)OC(OC3CC(C)=CC4C3CC(C)C3/C(C)=C\CC/C(C)=C/C5(C)C=C(C(=O)O)C(C)CC56OC(=O)C(=C6O)C(=O)C43C)C(O)C2O)c(OC)c1 (stereo not drawn) [Compound 2, Tetromycin 2]	> 100	> 100	45.4	80.3	–	–	–	–	–	–	–	–	–	–	–	–	–	–
CC1=CC2(C)/C=C(\C)CC/C=C(/C)C3C(C)=CC4C(O)CCC(C)C4C3(C)C(=O)C3=C(O)C2(CC1C)OC3=O (stereo not drawn) [Compound 5, Tetromycin B]	–	> 100	30.9	34.2	20.2	1.42 ± 0.01	15,540 ± 1295 M^−1 min^−1	71.8	69.6 ± 7.2	competitive inhibition	time-dependent inhibition	0.62 ± 0.03	14,539 ± 1949 M^−1 min^−1	32.5 ± 0.05	1576 ± 413 M⁻¹ min⁻¹	1.5 µM and 1.59 µM	non-time dependent inhibition	–
COc1cc(O)cc(C)c1C(=O)OC1C(C)OC(OC2CC(C)=CC3C2CC(C)C2/C(C)=C\CC/C(C)=C/C4(C)C=C(C(=O)O)C(C)CC45OC(=O)C(=C5O)C(=O)C32C)C(O)C1O (stereo not drawn) [Compound 4, Tetromycin 4]	58.6	> 100	35.9	41.6	–	3.1 ± 0.2	1836 ± 108 M⁻¹ min⁻¹	–	40 ± 6.5	–	–	4 ± 0.3	8354 ± 1562 M⁻¹ min⁻¹	22.4 ± 0.8	14,700 ± 1000 M^−1 min^−1	1.6 ± 0.1 µM	–	–
COc1cc(O)cc(C)c1C(=O)OC1C(C)OC(OC2CC=C(C)C3C2CC(C)C2/C(C)=C\CC/C(C)=C/C4C=C(C(=O)O)C(C)CC45OC(=O)C(=C5O)C(=O)C32C)C(O)C1O (stereo not drawn) [Compound 3, Tetromycin 3]	33.4	36.8	26.9	30.4	–	1.65 ± 0.25	617 ± 9 M⁻¹ min⁻¹	–	–	–	–	2.1 ± 0.9	36,600 ± 1590 M^−1 min^−1	15 ± 1.95	14,977 ± 2005 M^−1 min^−1	0.57 ± 0.04 µM	–	0.042
COc1cc(C)c(C(=O)NC2C(C)OC(OC3CC(C)=CC4C3CC(C)C3/C(C)=C\CC/C(C)=C/C5(C)C=C(C(=O)O)C(C)CC56OC(=O)C(=C6O)C(=O)C43C)C(O)C2(C)O)c(O)c1 (stereo not drawn) [Compound 1, Tetromycin 1]	> 100	> 100	29.3	31.7	–	–	–	–	–	–	–	–	–	–	–	–	–	–
